Experiments:
wheat [1] = experiment: Test A preemergence; type: in vivo, Triticum aestivum
Summary of the method: (§1)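 Weeds and crops in loam–sand blend were sprayed preemergence onto soil or postemergence at 2–10 cm (one- to two-leaf stage). Test chemicals were in a non-phytotoxic solvent with surfactant. After 10 days in the greenhouse, injury was rated visually against untreated controls on a 0 (no effect) to 100 (complete control) scale.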

goosegrass [2] = experiment: Test A postemergence; type: in vivo, Eleusine indica
Summary of the method: as §1

ryegrass, Italian [3] = experiment: Test A postemergence; type: in vivo, Lolium multiflorum
Summary of the method: as §1

blackgrass [4] = experiment: Test A preemergence; type: in vivo, Alopecurus myosuroides
Summary of the method: as §1

oat, wild [5] = experiment: Test A preemergence; type: in vivo, Avena fatua
Summary of the method: as §1

rice = experiment: Test B flooded paddy test; type: in vivo, Oryza sativa; conditions: 250 g ai/ha, Flood, 13 days, 0 to 100 scale (0 no effect, 100 complete control)
Summary of the method: (§2)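 Application into standing water (3 cm above soil) at the two-leaf stage; flood depth held constant. Evaluation: day 13, visual comparison with controls, 0 = no injury, 100 = complete control.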

pigweed, palmer [6] = experiment: Test A preemergence; type: in vivo, Amaranthus palmeri
Summary of the method: as §1

horseweed = experiment: Test A postemergence; type: in vivo, Erigeron canadensis
Summary of the method: as §1

foxtail, giant [7] = experiment: Test A postemergence; type: in vivo, Setaria faberi
Summary of the method: as §1

oat, wild [8] = experiment: Test A postemergence; type: in vivo, Avena fatua
Summary of the method: as §1

blackgrass [9] = experiment: Test A postemergence; type: in vivo, Alopecurus myosuroides
Summary of the method: as §1

ryegrass, Italian [10] = experiment: Test A preemergence; type: in vivo, Lolium multiflorum
Summary of the method: as §1

wheat [11] = experiment: Test A postemergence; type: in vivo, Triticum aestivum
Summary of the method: as §1

corn [12] = experiment: Test A postemergence; type: in vivo, Zea mays
Summary of the method: as §1

ducksalad = experiment: Test B flooded paddy test; type: in vivo, Heteranthera limosa; conditions: 250 g ai/ha, Flood, 13 days, 0 to 100 scale (0 no effect, 100 complete control)
Summary of the method: as §2

ragweed [13] = experiment: Test A preemergence; type: in vivo, Ambrosia artemisiifolia
Summary of the method: as §1

goosegrass [14] = experiment: Test A preemergence; type: in vivo, Eleusine indica
Summary of the method: as §1

foxtail, giant [15] = experiment: Test A preemergence; type: in vivo, Setaria faberi
Summary of the method: as §1

galium = experiment: Test A postemergence; type: in vivo, Galium aparine
Summary of the method: as §1

soybean [16] = experiment: Test A preemergence; type: in vivo, Glycine max
Summary of the method: as §1

barnyardgrass = experiment: Test B flooded paddy test; type: in vivo, Echinochloa crus-galli; conditions: 250 g ai/ha, Flood, 13 days, 0 to 100 scale (0 no effect, 100 complete control)
Summary of the method: as §2

pigweed, palmer [17] = experiment: Test A postemergence; type: in vivo, Amaranthus palmeri
Summary of the method: as §1

soybean [18] = experiment: Test A postemergence; type: in vivo, Glycine max
Summary of the method: as §1

kochia [19] = experiment: Test A preemergence; type: in vivo, Bassia scoparia
Summary of the method: as §1

sedge, umbrella = experiment: Test B flooded paddy test; type: in vivo, Cyperus difformis; conditions: 250 g ai/ha, Flood, 13 days, 0 to 100 scale (0 no effect, 100 complete control)
Summary of the method: as §2

corn [20] = experiment: Test A preemergence; type: in vivo, Zea mays
Summary of the method: as §1

kochia [21] = experiment: Test A postemergence; type: in vivo, Bassia scoparia
Summary of the method: as §1

ragweed [22] = experiment: Test A postemergence; type: in vivo, Ambrosia artemisiifolia
Summary of the method: as §1

[23] = 125 g ai/ha, visual injury after 10 days, 0 to 100 scale, 0 is no effect, 100 is complete control
[24] = 500 g ai/ha, 0 to 100 scale (0 no effect, 100 complete control), 10 days
[25] = 125 g ai/ha, postemergence, 10 days, visual injury, 0 to 100 scale (0 no effect, 100 complete control)
[26] = 500 g ai/ha, Postemergence, 0 to 100 scale

Cc1cccc2c1O[C@@H](C)CN2C(=O)c1ccc(F)c(-n2cncn2)c1 [Compound 52]
40: Plant response rating, Ryegrass, Italian (ryegrass, Italian [3]; [25]) | Plant response rating, Oat, Wild (oat, wild [5]; [23]) | Plant response rating, Corn (corn [12]; [25]) | Plant response rating, Corn (corn [20]; [24])
10: Plant response rating, Rice (rice) | Plant response rating, Kochia (kochia [21]; [25])
80: Plant response rating, Ryegrass, Italian (ryegrass, Italian [3]; [26]) | Plant response rating, Oat, Wild (oat, wild [5]; [24]) | Plant response rating, Oat, Wild (oat, wild [8]; [26]) | Plant response rating, Ryegrass, Italian (ryegrass, Italian [10]; [23])
100: Plant response rating, Pigweed, Palmer (pigweed, palmer [6]; [24]) | Plant response rating, Ryegrass, Italian (ryegrass, Italian [10]; [24]) | Plant response rating, Goosegrass (goosegrass [14]; [24]) | Plant response rating, Foxtail, Giant (foxtail, giant [15]; [24]) | Plant response rating, Soybean (soybean [18]; [25]) | Plant response rating, Soybean (soybean [18]; [26])
60: Plant response rating, Wheat (wheat [1]; [24]) | Plant response rating, Goosegrass (goosegrass [2]; [26]) | Plant response rating, Blackgrass (blackgrass [4]; [24]) | Plant response rating, Foxtail, Giant (foxtail, giant [7]; [25]) | Plant response rating, Blackgrass (blackgrass [9]; [26]) | Plant response rating, Wheat (wheat [11]; [26]) | Plant response rating, Pigweed, Palmer (pigweed, palmer [17]; [26]) | Plant response rating, Kochia (kochia [21]; [26])
20: Plant response rating, Oat, Wild (oat, wild [8]; [25]) | Plant response rating, Corn (corn [20]; [23])
70: Plant response rating, Corn (corn [12]; [26]) | Plant response rating, Ragweed (ragweed [13]; [24]) | Plant response rating, Kochia (kochia [19]; [24])
0: Plant response rating, Pigweed, Palmer (pigweed, palmer [6]; [23]) | Plant response rating, Horseweed (horseweed; [25]) | Plant response rating, Horseweed (horseweed; [26]) | Plant response rating, Ragweed (ragweed [13]; [23]) | Plant response rating, Kochia (kochia [19]; [23]) | Plant response rating, Ragweed (ragweed [22]; [25])
30: Plant response rating, Wheat (wheat [1]; [23]) | Plant response rating, Wheat (wheat [11]; [25]) | Plant response rating, Galium (galium; [25]) | Plant response rating, Soybean (soybean [16]; [23]) | Plant response rating, Pigweed, Palmer (pigweed, palmer [17]; [25]) | Plant response rating, Ragweed (ragweed [22]; [26])
50: Plant response rating, Goosegrass (goosegrass [2]; [25]) | Plant response rating, Blackgrass (blackgrass [4]; [23]) | Plant response rating, Blackgrass (blackgrass [9]; [25]) | Plant response rating, Ducksalad (ducksalad)
25: Plant response rating, Barnyardgrass (barnyardgrass)
90: Plant response rating, Foxtail, Giant (foxtail, giant [7]; [26]) | Plant response rating, Goosegrass (goosegrass [14]; [23]) | Plant response rating, Foxtail, Giant (foxtail, giant [15]; [23]) | Plant response rating, Galium (galium; [26]) | Plant response rating, Soybean (soybean [16]; [24])
75: Plant response rating, Sedge, Umbrella (sedge, umbrella)

Source: patent US20260262643A1, “HERBICIDAL BENZOXAZINES” (FMC CORPORATION, priority 2022, published 2026)
